Results reported in ChEMBL document CHEMBL5291721, “A preclinical secondary pharmacology resource illuminates target-adverse drug reaction associations of marketed drugs” (Nat Commun, 2023).

Tests used:
[1] = biological target: Voltage-gated inwardly rectifying potassium channel KCNH2 (Homo sapiens, UniProt Q12809); type: functional
Mu-type opioid receptor = Mu-type opioid receptor (Homo sapiens, UniProt P35372)
Prothrombin = Prothrombin (Homo sapiens, UniProt P00734); type: functional
[2] = biological target: T1, Amine oxidase [flavin-containing] A (Homo sapiens, UniProt P21397); type: functional
T1 sequence (P21397 whole entry): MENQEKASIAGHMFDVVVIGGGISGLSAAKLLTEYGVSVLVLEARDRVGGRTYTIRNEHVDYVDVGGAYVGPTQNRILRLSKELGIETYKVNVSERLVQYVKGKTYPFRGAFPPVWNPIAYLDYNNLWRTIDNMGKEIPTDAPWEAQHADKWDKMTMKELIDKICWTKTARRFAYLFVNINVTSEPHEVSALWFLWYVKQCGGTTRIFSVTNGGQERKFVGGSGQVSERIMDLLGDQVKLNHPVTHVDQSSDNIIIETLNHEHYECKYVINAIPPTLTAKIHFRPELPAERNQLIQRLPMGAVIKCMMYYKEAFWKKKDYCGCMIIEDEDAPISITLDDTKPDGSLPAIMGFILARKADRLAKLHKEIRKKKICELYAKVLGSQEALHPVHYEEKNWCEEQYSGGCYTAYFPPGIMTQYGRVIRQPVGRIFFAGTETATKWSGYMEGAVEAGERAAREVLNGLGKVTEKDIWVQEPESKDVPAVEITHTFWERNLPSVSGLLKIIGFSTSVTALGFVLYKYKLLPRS

Progesterone receptor = biological target: T2, Progesterone receptor (Homo sapiens, UniProt P06401)
T2 sequence (P06401 whole entry): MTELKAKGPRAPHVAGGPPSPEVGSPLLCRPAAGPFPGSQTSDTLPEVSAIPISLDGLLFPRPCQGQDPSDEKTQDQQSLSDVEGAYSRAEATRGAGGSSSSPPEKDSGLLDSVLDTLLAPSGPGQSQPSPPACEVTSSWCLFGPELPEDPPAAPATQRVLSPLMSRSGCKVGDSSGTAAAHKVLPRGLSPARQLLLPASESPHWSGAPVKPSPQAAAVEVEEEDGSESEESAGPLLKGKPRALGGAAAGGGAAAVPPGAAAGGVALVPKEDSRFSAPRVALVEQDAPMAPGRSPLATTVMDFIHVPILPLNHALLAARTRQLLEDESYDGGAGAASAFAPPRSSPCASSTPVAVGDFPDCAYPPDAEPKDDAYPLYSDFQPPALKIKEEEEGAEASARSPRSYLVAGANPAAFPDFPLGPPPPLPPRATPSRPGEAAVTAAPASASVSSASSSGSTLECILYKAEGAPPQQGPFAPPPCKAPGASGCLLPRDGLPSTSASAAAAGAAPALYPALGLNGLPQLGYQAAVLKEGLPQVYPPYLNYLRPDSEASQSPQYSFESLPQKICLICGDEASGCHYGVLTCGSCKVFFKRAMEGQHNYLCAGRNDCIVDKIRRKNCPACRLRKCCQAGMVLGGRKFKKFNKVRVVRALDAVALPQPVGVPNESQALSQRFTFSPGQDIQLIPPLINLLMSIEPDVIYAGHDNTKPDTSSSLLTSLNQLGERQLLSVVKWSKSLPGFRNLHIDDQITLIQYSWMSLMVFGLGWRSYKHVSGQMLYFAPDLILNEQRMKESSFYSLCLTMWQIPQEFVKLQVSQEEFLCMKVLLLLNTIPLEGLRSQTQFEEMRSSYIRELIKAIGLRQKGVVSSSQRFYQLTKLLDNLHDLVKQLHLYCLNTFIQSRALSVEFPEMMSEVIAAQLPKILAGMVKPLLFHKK

[3] = biological target: 3',5'-cyclic-AMP phosphodiesterase 4A (Homo sapiens, UniProt P27815); type: functional
[4] = biological target: T3, Prostaglandin G/H synthase 1 (Homo sapiens, UniProt P23219); type: functional
[5] = biological target: Sodium-dependent dopamine transporter (Homo sapiens, UniProt Q01959)
Thromboxane A2 receptor = biological target: T4, Thromboxane A2 receptor (Homo sapiens, UniProt P21731); type: functional, cell-based
T4 sequence (P21731 whole entry): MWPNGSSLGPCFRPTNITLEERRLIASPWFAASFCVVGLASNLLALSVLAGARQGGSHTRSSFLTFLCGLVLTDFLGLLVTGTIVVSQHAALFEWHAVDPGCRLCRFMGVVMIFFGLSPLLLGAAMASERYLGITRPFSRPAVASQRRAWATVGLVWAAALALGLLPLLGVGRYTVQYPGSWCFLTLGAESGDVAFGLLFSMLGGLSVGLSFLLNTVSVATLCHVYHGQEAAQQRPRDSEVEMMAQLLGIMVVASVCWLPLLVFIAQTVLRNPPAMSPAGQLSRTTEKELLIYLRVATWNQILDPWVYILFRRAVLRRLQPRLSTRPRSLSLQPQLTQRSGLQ

Acetylcholinesterase = Acetylcholinesterase (Homo sapiens, UniProt P22303); type: functional
D(3) dopamine receptor = D(3) dopamine receptor (Homo sapiens, UniProt P35462)
[6] = biological target: T5, Alpha-1A adrenergic receptor (Homo sapiens, UniProt P35348); type: functional, cell-based
T5 sequence (P35348 whole entry): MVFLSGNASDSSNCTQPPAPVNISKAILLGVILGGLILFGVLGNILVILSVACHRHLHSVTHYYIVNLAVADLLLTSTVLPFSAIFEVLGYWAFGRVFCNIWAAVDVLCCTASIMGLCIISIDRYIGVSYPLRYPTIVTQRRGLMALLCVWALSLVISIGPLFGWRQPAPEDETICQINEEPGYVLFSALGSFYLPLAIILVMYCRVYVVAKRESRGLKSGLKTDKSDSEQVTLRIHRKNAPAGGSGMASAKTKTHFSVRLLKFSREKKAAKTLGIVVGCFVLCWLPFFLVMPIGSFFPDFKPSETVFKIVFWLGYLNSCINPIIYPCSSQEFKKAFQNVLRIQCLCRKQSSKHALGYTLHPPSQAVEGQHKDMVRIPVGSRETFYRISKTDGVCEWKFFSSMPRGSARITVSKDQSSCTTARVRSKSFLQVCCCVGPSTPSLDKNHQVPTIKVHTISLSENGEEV

[7] = biological target: T3, Prostaglandin G/H synthase 1; type: functional; remark: listed apart in the source
D(1A) dopamine receptor = D(1A) dopamine receptor (Homo sapiens, UniProt P21728)
[8] = biological target: cGMP-inhibited 3',5'-cyclic phosphodiesterase 3A (Homo sapiens, UniProt Q14432); type: functional
Note: assay procedure not described here.

Sequence of cGMP-inhibited 3',5'-cyclic phosphodiesterase 3A (Q14432 whole entry): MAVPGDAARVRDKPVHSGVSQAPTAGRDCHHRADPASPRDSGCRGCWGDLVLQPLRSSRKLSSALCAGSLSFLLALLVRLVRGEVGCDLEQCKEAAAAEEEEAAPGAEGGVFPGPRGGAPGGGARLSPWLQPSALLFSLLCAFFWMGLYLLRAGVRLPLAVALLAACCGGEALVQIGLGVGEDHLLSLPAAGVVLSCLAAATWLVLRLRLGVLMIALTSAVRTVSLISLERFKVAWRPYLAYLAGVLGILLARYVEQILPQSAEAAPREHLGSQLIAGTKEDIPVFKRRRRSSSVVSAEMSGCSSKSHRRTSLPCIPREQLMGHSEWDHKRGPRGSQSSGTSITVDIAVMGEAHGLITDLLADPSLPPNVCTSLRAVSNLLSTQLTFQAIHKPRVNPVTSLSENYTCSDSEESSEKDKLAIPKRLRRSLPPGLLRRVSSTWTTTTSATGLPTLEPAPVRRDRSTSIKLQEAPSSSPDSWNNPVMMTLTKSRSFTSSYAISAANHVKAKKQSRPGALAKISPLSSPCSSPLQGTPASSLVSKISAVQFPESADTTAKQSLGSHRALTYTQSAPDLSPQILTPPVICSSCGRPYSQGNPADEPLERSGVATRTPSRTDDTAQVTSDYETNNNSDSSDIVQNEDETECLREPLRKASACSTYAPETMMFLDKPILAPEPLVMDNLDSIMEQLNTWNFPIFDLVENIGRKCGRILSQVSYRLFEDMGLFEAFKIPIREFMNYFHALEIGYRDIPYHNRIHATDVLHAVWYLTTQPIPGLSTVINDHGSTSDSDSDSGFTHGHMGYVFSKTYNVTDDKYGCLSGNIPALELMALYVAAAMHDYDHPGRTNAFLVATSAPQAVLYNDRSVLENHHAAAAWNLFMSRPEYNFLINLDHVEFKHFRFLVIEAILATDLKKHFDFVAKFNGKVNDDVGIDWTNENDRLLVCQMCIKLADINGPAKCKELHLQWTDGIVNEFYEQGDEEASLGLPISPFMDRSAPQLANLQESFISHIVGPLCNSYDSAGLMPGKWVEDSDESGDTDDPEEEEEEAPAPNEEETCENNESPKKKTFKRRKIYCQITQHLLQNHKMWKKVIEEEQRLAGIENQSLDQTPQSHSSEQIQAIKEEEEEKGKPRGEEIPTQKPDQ
Sequence of Acetylcholinesterase (P22303 whole entry): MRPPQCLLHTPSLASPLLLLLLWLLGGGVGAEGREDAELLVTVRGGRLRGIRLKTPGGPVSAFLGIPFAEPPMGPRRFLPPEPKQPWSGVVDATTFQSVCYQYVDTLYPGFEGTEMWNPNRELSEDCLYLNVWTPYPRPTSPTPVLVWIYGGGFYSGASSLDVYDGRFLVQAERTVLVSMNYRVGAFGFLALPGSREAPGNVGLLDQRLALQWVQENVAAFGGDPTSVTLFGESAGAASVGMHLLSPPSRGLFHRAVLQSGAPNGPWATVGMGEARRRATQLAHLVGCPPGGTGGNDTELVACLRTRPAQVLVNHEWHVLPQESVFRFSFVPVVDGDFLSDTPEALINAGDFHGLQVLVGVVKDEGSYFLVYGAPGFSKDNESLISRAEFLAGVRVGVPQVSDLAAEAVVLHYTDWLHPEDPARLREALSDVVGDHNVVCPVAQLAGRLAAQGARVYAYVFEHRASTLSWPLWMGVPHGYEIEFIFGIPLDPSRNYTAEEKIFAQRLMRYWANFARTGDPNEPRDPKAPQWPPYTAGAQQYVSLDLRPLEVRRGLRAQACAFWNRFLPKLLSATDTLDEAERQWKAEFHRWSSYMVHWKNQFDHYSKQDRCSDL
Sequence of Sodium-dependent dopamine transporter (Q01959 whole entry): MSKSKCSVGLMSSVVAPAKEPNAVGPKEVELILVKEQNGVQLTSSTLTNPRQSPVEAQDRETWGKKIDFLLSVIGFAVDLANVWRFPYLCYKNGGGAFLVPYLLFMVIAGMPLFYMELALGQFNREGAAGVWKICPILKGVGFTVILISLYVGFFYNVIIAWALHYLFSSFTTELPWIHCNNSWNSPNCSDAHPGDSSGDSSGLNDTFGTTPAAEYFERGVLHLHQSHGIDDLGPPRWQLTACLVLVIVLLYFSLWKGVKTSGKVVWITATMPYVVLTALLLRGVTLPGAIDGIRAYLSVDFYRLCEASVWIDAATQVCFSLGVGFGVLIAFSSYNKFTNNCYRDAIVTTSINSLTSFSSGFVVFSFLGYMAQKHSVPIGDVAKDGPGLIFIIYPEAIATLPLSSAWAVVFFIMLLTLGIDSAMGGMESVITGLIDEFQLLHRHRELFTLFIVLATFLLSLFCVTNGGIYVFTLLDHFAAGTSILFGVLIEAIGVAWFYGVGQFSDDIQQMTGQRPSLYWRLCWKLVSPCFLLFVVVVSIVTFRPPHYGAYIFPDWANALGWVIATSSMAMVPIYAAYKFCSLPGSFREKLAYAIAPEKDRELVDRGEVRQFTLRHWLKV
Sequence of 3',5'-cyclic-AMP phosphodiesterase 4A (P27815 whole entry): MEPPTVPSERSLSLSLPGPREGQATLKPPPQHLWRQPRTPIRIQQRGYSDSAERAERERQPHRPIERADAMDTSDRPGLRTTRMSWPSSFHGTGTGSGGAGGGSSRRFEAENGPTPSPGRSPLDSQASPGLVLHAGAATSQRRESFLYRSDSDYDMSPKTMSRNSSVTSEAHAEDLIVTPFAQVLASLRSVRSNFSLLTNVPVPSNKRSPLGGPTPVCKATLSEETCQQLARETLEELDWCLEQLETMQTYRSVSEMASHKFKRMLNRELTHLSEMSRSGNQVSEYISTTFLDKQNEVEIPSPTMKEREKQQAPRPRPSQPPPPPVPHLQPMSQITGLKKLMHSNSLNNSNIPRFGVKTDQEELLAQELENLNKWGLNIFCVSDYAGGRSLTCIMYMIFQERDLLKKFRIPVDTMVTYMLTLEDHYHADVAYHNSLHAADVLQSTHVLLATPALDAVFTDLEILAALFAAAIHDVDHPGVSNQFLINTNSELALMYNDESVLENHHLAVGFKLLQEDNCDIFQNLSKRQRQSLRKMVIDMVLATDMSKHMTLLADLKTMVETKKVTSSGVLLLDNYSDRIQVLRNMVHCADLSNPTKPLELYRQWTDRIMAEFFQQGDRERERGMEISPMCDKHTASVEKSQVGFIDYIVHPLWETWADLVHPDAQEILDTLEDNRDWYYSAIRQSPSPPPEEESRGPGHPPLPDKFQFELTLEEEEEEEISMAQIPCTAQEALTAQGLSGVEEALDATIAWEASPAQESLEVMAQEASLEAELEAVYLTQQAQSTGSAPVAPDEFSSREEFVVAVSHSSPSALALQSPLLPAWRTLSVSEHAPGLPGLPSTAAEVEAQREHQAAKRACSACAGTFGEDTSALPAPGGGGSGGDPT
T3 sequence (P23219 whole entry): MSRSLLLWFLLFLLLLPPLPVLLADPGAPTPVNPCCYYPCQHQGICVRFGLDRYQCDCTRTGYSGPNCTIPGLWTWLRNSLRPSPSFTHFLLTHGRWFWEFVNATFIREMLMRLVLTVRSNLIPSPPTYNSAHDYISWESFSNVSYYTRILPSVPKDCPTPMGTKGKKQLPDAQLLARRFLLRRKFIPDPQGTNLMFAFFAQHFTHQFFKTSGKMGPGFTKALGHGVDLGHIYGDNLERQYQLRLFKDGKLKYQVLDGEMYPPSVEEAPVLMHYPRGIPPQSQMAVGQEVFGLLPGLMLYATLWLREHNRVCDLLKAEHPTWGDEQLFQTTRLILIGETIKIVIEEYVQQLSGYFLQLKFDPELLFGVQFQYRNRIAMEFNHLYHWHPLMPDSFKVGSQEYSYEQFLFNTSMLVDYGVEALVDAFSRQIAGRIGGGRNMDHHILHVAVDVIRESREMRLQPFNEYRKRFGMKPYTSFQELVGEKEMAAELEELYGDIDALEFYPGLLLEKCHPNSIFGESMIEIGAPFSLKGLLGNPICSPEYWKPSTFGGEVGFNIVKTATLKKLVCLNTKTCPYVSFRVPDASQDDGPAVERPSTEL
Sequence of Voltage-gated inwardly rectifying potassium channel KCNH2 (Q12809 whole entry): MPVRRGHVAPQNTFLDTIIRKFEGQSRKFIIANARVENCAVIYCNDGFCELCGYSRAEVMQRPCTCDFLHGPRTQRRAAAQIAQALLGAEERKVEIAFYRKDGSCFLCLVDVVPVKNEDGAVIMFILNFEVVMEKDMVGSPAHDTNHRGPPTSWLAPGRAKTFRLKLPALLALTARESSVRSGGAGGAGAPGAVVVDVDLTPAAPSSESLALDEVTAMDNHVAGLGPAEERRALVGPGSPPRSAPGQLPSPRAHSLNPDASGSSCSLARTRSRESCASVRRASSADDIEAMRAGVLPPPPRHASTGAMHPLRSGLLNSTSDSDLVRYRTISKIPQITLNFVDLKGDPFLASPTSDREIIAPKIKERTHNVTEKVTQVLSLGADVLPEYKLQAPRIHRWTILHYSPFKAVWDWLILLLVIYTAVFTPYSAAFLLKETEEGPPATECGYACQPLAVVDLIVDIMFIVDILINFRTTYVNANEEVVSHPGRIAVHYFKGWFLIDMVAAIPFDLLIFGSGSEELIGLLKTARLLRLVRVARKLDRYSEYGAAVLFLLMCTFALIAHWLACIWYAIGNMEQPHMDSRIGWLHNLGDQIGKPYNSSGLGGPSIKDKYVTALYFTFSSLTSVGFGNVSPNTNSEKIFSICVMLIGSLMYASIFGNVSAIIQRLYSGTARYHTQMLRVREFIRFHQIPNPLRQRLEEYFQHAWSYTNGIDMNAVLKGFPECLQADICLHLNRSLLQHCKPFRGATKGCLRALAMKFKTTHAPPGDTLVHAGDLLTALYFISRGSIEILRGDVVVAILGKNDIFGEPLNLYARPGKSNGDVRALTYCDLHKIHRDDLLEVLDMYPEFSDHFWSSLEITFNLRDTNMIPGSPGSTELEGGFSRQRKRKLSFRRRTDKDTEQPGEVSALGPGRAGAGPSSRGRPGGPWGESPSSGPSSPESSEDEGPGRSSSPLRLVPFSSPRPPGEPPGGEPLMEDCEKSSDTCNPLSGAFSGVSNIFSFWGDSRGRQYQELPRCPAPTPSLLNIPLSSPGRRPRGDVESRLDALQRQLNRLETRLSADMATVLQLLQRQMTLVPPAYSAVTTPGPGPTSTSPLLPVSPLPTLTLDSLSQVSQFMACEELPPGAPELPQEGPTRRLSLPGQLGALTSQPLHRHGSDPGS

| SMILES | AC50 [1] | AC50 (Mu-type opioid receptor) | AC50 (Prothrombin) | AC50 [2] | AC50 (Progesterone receptor) | AC50 [3] | AC50 [4] | AC50 [5] | AC50 (Thromboxane A2 receptor) | AC50 (Acetylcholinesterase) | AC50 (D(3) dopamine receptor) | AC50 [6] | AC50 [7] | AC50 (D(1A) dopamine receptor) | AC50 [8] |
| --- | --- | --- | --- | --- | --- | --- | --- | --- | --- | --- | --- | --- | --- | --- | --- |
| CCNC(=O)/C=C(C)/C=C/C=C(C)/C=C/c1c(C)cc(OC)c(C)c1C [MOTRETINIDE] | 5.7 µM | 28.4 µM | > 30 µM | > 30 µM | 0.932 µM | > 30 µM | 12 µM | > 10 µM | > 30 µM | > 30 µM | > 30 µM | > 30 µM | 6.95 µM | > 30 µM | > 30 µM |
| C=CC(=O)Nc1cccc(Oc2nc(Nc3ccc(N4CCN(C)CC4)cc3)nc3ccsc23)c1 [OLMUTINIB] | 0.54 µM | 5.5 µM | > 30 µM | > 30 µM | > 30 µM | 3.19 µM | > 30 µM | 0.0559 µM | > 30 µM | > 30 µM | 0.453 µM | > 30 µM | > 30 µM | 3.81 µM | > 30 µM |
| COc1ccc2[nH]c([S+]([O-])Cc3ncc(C)c(OC)c3C)nc2c1 (stereo not given) [OMEPRAZOLE] | 17 µM | 12 µM | > 30 µM | > 30 µM | > 30 µM | > 30 µM | > 30 µM | > 30 µM | > 30 µM | > 30 µM | 20.7 µM | > 30 µM | 5.76 µM | > 30 µM | > 30 µM |
| CCCCC1C(=O)N(c2ccccc2)N(c2ccc(O)cc2)C1=O (stereo not given) [OXYPHENBUTAZONE ANHYDROUS] | > 30 µM | > 30 µM | > 30 µM | > 30 µM | > 30 µM | > 30 µM | 21.8 µM | > 30 µM | > 30 µM | > 30 µM | > 30 µM | > 30 µM | 7.8 µM | > 30 µM | > 30 µM |
| O=C(O)CN(CCN(CC(=O)O)CC(=O)O)CCN(CC(=O)O)CC(=O)O [PENTETIC ACID] | > 30 µM | > 30 µM | > 30 µM | > 30 µM | > 30 µM | > 30 µM | > 30 µM | 6.51 µM | > 30 µM | > 30 µM | 2.26 µM | > 30 µM | > 30 µM | 8.71 µM | > 30 µM |
| Nc1cccc2c1C(=O)N(C1CCC(=O)NC1=O)C2=O (stereo not given) [POMALIDOMIDE] | > 30 µM | > 30 µM | > 30 µM | > 30 µM | > 30 µM | > 30 µM | > 30 µM | > 30 µM | 26.7 µM | > 30 µM | > 30 µM | > 30 µM | > 30 µM | > 30 µM | > 30 µM |
| C[Se]CC[C@H](N)C(=O)O [SELENOMETHIONINE] | > 30 µM | > 30 µM | > 30 µM | > 30 µM | > 30 µM | > 30 µM | > 30 µM | > 30 µM | > 30 µM | > 30 µM | > 30 µM | > 30 µM | > 30 µM | > 30 µM | > 30 µM |
| Cc1ccsc1C(=CCCN1CCC[C@@H](C(=O)O)C1)c1sccc1C [TIAGABINE] | > 30 µM | > 30 µM | > 30 µM | > 30 µM | > 30 µM | 23.6 µM | > 30 µM | > 30 µM | > 30 µM | > 30 µM | > 30 µM | > 30 µM | 24.4 µM | > 30 µM | > 30 µM |
| Cc1ccc(C(=O)c2ccc(CC(=O)O)n2C)cc1 [TOLMETIN] | > 30 µM | > 30 µM | > 30 µM | > 30 µM | > 30 µM | > 30 µM | 0.0415 µM | > 30 µM | > 30 µM | > 30 µM | > 30 µM | > 30 µM | 0.081 µM | > 30 µM | > 30 µM |
| Cc1ccccc1C(=O)Nc1ccc(C(=O)N2CCCC(O)c3cc(Cl)ccc32)c(C)c1 (stereo not given) [TOLVAPTAN] | > 30 µM | 6.71 µM | > 30 µM | > 30 µM | > 30 µM | > 30 µM | > 30 µM | > 30 µM | > 30 µM | > 30 µM | > 30 µM | > 30 µM | > 30 µM | > 30 µM | > 30 µM |
| C[C@]12C=CC(=O)C=C1CC[C@H]1[C@@H]3C[C@@H](O)[C@](O)(C(=O)CO)[C@@]3(C)C[C@H](O)[C@@]12F [TRIAMCINOLONE] | > 30 µM | > 30 µM | > 30 µM | > 30 µM | 19.7 µM | > 30 µM | > 30 µM | > 30 µM | > 30 µM | > 30 µM | > 30 µM | > 30 µM | > 30 µM | > 30 µM | > 30 µM |
| CC[C@]12CCCN3CCc4c(n(c5ccccc45)[C@@](O)(C(=O)OC)C1)[C@@H]32 [VINCAMINE] | 0.46 µM | > 30 µM | > 30 µM | > 30 µM | > 30 µM | > 30 µM | > 30 µM | > 30 µM | > 30 µM | > 30 µM | > 30 µM | > 30 µM | > 30 µM | > 30 µM | > 30 µM |
